Measured values from the NIST ThermoML archive (doi:10.1016/j.jct.2012.01.023).

How the values were obtained:
[1] = for mass density: 298.1 K, 101.33 kPa, Liquid, Vibrating tube method; for surface tension liquid-gas: 298.15 K, Drop volume
[2] = xn = mol fraction of the nth substance listed; settings: 298.15 K, Drop volume

CCOS(=O)(=O)[O-].CCn1cc[n+](C)c1 [1-ethyl-3-methylimidazolium ethyl sulfate]
[1]
Settings	mass density [kg/m3]	surface tension liquid-gas [mN/m]
–	1238.3	47.13

CCOS(=O)(=O)[O-].CCn1cc[n+](C)c1 [1-ethyl-3-methylimidazolium ethyl sulfate] + CCO
[2]
Settings	surface tension liquid-gas [mN/m]
x1 = 0.0988	24.18
x1 = 0.2056	26.37
x1 = 0.3025	28.52
x1 = 0.3989	30.68
x1 = 0.4999	32.99
x1 = 0.5984	35.4
x1 = 0.703	38.12
x1 = 0.8252	41.48
x1 = 0.9048	43.81
x1 = 1	47.16

CCOS(=O)(=O)[O-].CCn1cc[n+](C)c1 [1-ethyl-3-methylimidazolium ethyl sulfate] + O
[2]
Settings	surface tension liquid-gas [mN/m]
x1 = 0.005	67.23
x1 = 0.0199	62.42
x1 = 0.0402	59.68
x1 = 0.06	57.64
x1 = 0.1006	55.64
x1 = 0.202	52.23
x1 = 0.3017	50.45
x1 = 0.4046	49.42
x1 = 0.5026	48.79
x1 = 0.6066	48.3
x1 = 0.6957	47.94
x1 = 0.7939	47.72
x1 = 0.9041	47.39
x1 = 1	47.16

CCCCCCCCOS(=O)(=O)[O-].CCn1cc[n+](C)c1 [1-ethyl-3-methylimidazolium octyl sulfate]
[1]
Settings	mass density [kg/m3]	surface tension liquid-gas [mN/m]
–	1093.75	31.29

CCCCCCCCOS(=O)(=O)[O-].CCn1cc[n+](C)c1 [1-ethyl-3-methylimidazolium octyl sulfate] + CCO
[2]
Settings	surface tension liquid-gas [mN/m]
x1 = 0.0399	22.89
x1 = 0.0712	23.71
x1 = 0.098	24.48
x1 = 0.1595	25.82
x1 = 0.215	26.62
x1 = 0.2445	27.01
x1 = 0.2985	27.64
x1 = 0.3506	28.18
x1 = 0.4002	28.61
x1 = 0.4582	28.92
x1 = 0.5059	29.14
x1 = 0.6269	29.6
x1 = 0.7387	29.96
x1 = 0.8317	30.5
x1 = 0.9164	30.8
x1 = 0.9432	30.79
x1 = 0.953	30.82
x1 = 1	30.91

CCCCCCCCOS(=O)(=O)[O-].CCn1cc[n+](C)c1 [1-ethyl-3-methylimidazolium octyl sulfate] + O
[2]
Settings	surface tension liquid-gas [mN/m]
x1 = 0.0002	56.92
x1 = 0.0007	42.45
x1 = 0.005	37.84
x1 = 0.011	37.19
x1 = 0.0198	36.69
x1 = 0.0349	35.3
x1 = 0.0506	34.96
x1 = 0.0774	33.87
x1 = 0.0937	33.62
x1 = 0.2846	31.01
x1 = 0.4	30.48
x1 = 0.5127	30.72
x1 = 0.5677	30.67
x1 = 0.6347	30.71
x1 = 0.6934	30.74
x1 = 0.7018	30.77
x1 = 0.7373	30.7
x1 = 0.766	30.81
x1 = 0.8287	30.71
x1 = 0.8904	30.79
x1 = 1	30.91

CCCCCCOS(=O)(=O)[O-].CC[n+]1ccn(C)c1 [3-ethyl-1-methyl-1H-imidazolium hexyl sulfate]
[1]
Settings	mass density [kg/m3]	surface tension liquid-gas [mN/m]
–	1129.6	34.77

CCCCCCOS(=O)(=O)[O-].CC[n+]1ccn(C)c1 [3-ethyl-1-methyl-1H-imidazolium hexyl sulfate] + CCO
[2]
Settings	surface tension liquid-gas [mN/m]
x1 = 0.03	22.98
x1 = 0.0679	23.87
x1 = 0.0977	24.48
x1 = 0.1253	25
x1 = 0.2267	26.53
x1 = 0.3138	27.69
x1 = 0.386	28.6
x1 = 0.4691	29.48
x1 = 0.5946	30.86
x1 = 0.7189	32.08
x1 = 0.7951	32.84
x1 = 0.9409	34.31
x1 = 1	34.77

CCCCCCOS(=O)(=O)[O-].CC[n+]1ccn(C)c1 [3-ethyl-1-methyl-1H-imidazolium hexyl sulfate] + O
[2]
Settings	surface tension liquid-gas [mN/m]
x1 = 0.0005	62.58
x1 = 0.0008	58.45
x1 = 0.002	49.54
x1 = 0.005	42.13
x1 = 0.0196	40.27
x1 = 0.0396	39.55
x1 = 0.0602	38.88
x1 = 0.0797	38.25
x1 = 0.0997	37.79
x1 = 0.1997	36.16
x1 = 0.3009	35.59
x1 = 0.4034	35.25
x1 = 0.4957	35.05
x1 = 0.5943	34.95
x1 = 0.705	34.87
x1 = 0.7893	34.82
x1 = 0.8997	34.77
x1 = 1	34.77

CCCCOS(=O)(=O)[O-].CC[n+]1ccn(C)c1 [3-ethyl-1-methylimidazolium butyl sulfate]
[1]
Settings	mass density [kg/m3]	surface tension liquid-gas [mN/m]
–	1175.65	39.64

CCCCOS(=O)(=O)[O-].CC[n+]1ccn(C)c1 [3-ethyl-1-methylimidazolium butyl sulfate] + CCO
[2]
Settings	surface tension liquid-gas [mN/m]
x1 = 0.066	23.6
x1 = 0.1347	25.01
x1 = 0.1536	25.36
x1 = 0.2904	27.76
x1 = 0.4691	30.63
x1 = 0.4993	31.05
x1 = 0.6866	33.99
x1 = 0.7916	35.75
x1 = 0.8794	37.35
x1 = 1	39.62

CCCCOS(=O)(=O)[O-].CC[n+]1ccn(C)c1 [3-ethyl-1-methylimidazolium butyl sulfate] + O
[2]
Settings	surface tension liquid-gas [mN/m]
x1 = 0.0389	44.48
x1 = 0.0403	45.93
x1 = 0.0579	40.83
x1 = 0.0602	41.7
x1 = 0.0758	39.85
x1 = 0.0805	39.96
x1 = 0.0934	39.08
x1 = 0.0987	39.17
x1 = 0.1004	39.42
x1 = 0.101	39.84
x1 = 0.12	39.74
x1 = 0.133	40.29
x1 = 0.1464	40.85
x1 = 0.1716	41.83
x1 = 0.1947	41.59
x1 = 0.2004	41.48
x1 = 0.2585	40.83
x1 = 0.2973	40.81
x1 = 0.3957	40.04
x1 = 0.4017	40.31
x1 = 0.4764	39.93
x1 = 0.4992	40.01
x1 = 0.5868	39.89
x1 = 0.703	39.82
x1 = 0.7997	39.77
x1 = 0.9034	39.67
x1 = 1	39.62

CCO [ethanol]
Settings	surface tension liquid-gas [mN/m]
[1]	22.01

CCO [ethanol] + CCOS(=O)(=O)[O-].CCn1cc[n+](C)c1
Settings	surface tension liquid-gas [mN/m]
[2], x2 = 0	22.01

O [water]
Settings	surface tension liquid-gas [mN/m]
[1]	71.35

O [water] + CCOS(=O)(=O)[O-].CCn1cc[n+](C)c1
Settings	surface tension liquid-gas [mN/m]
[2], x2 = 0	71.35
